Source: ChEMBL document CHEMBL1121787, “Some 14 beta-substituted analogues of N-(cyclopropylmethyl)normorphine” (J Med Chem, 1981)
Several values for one entry are separate records, joined by “and”; a condition that tells them apart may be missing. Equal entries are not always repeated. Activity calls are given as the source filed them. The rule behind the calls is not given here.

Key:
Cavia porcellus = species: Cavia porcellus; experiment: Opioid agonistic activity was measured in guinea pig ileum; format: functional
[1] = test system: Opioid receptors; mu & kappa; settings: Cavia porcellus; Ileum
Mus musculus [2] = species: Mus musculus; experiment: Opioid agonistic activity was measured in mouse vas deferens; format: functional
Mus musculus [3] = species: Mus musculus; experiment: Opioid agonistic activity was measured in mouse vas deferens.; format: functional
Mus musculus [4] = species: Mus musculus; experiment: Opioid antagonist activity of compound was measured as inhibiting the binding of normorphine to mouse vas deferens; format: functional
Mus musculus [5] = species: Mus musculus

SMILES	IC50 (Cavia porcellus) [nM]	Ke [1] [nM]	IC50 (Mus musculus [2]) [nM]	Ke (Mus musculus [4])	also measured
Oc1ccc2c3c1O[C@H]1[C@@H](O)C=C[C@H]4C(C2)N(CC2CC2)CCC341 (some centres undefined)	2.16	0.8	–	–	–
O=C1C=C[C@@]2([N+](=O)[O-])C3Cc4ccc(O)c5c4C2(CCN3CC2CC2)[C@H]1O5 (some centres undefined)	41.2	4.44	330	14.9 nM	IC50 (Mus musculus [3]): 580 nM
Oc1ccc2c3c1O[C@H]1[C@@H](O)C=C[C@@]4(O)C(C2)N(CC2CC2)CCC314 (some centres undefined)	–	2.35	–	10.5 nM and 9 nM	–
CN1CC[C@]23c4c5ccc(O)c4O[C@H]2[C@@H](O)C=C[C@H]3[C@H]1C5	–	–	–	–	Ke (Mus musculus [5]): inactive
O=C1CC[C@@]2(O)[C@H]3Cc4ccc(O)c5c4[C@@]2(CCN3CC2CC2)[C@H]1O5 [NALTREXONE]	–	–	–	–	Inhibition (Cavia porcellus): 25%
O=C1C=C[C@@]2(Cl)C3Cc4ccc(O)c5c4C2(CCN3CC2CC2)[C@H]1O5 (some centres undefined)	–	3.92	–	16.6 nM	–
Oc1ccc2c3c1O[C@H]1[C@@H](O)C=C[C@@]4(S)C(C2)N(CC2CC2)CCC314 (some centres undefined)	39.1	1.69	218	22.9 nM and 20 nM	–
O=C1C=C[C@@]2(Br)C3Cc4ccc(O)c5c4C2(CCN3CC2CC2)[C@H]1O5 (some centres undefined)	–	1.36	–	2.35 nM and 2.83 nM	–
C=CCN1CC[C@]23c4c5ccc(O)c4O[C@H]2[C@@H](O)C=C[C@H]3[C@H]1C5 [NALORPHINE]	24.3	4.47	535	28.7 nM	–
C=CCN1CC[C@]23c4c5ccc(O)c4O[C@H]2C(=O)CC[C@@]3(O)[C@H]1C5 [NALOXONE]	–	–	–	3.66 nM	–
